Data from patent US9828339B2, “Biphenyl derivatives and methods for preparing same” (DONG-A ST CO., LTD, priority 2013, dated 2017).
pKi: −log10 of the molar value.

Key:
[1] = molecular target: T1, human muscarinic M3 receptor (Homo sapiens (Human), UniProt P20309); test: Binding assay on human muscarinic M3 receptor ([3H]-methyl scopolamine displacement); details: membranes overexpressing human M3 receptor, Ki from IC50 by Cheng-Prusoff, read-out: Binding Affinity to M3 Receptor, Ki
Outline: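 Displacement of [3H]-methyl scopolamine from membranes overexpressing human M3, in Tris-HCl, 25 °C, 120 min; filter-bound radioactivity counted. Nonspecific binding with 5 μM atropine; Ki from IC50 via Cheng-Prusoff.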

[2] = molecular target: T1, human muscarinic M3 receptor; test: Antagonism assay on human muscarinic M3 receptor (carbachol-induced intracellular calcium, FLIPR Calcium 5, transfected Cos-7 cells); type: cell-based; details: functional inhibitory constant; carbachol-induced intracellular calcium in Cos-7 cells transfected with human M3 receptor
Outline: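 Ki values converted by Cheng-Prusoff from IC50 against carbachol-evoked calcium rise, measured with FLIPR Calcium 5 in human M3-transfected Cos-7 cells. Compounds added 3 min before carbachol; signal scaled 0% before, 100% after agonist.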

Sprague-Dawley (SD) rats = test: Acute toxicity test for oral administration on rats; type: in vivo, rat; details: observed for 4 days
Protocol: [Experimental Example 4] Acute Toxicity Test for Oral Administration on Rats
In order to confirm acute toxicity of the compounds of the present invention, following experiment was conducted. A low-dose group, a medi-dose group and a high-dose group, wherein the compounds of Examples were administered 100 mg/kg, 300 mg/kg and 1000 mg/kg respectively, were prepared. Methyl cellulose solution (0.5%) was prepared and orally administered to 3 rats of each group (i.e. both sexes of 6-week old Sprague-Dawley (SD) rats; male rats in 142-143 g; female rats in 126.3-127.3 g) in a volume of 10 mL/kg. Mortality, clinical signs and weight and the like were measured for 4 days, and discovered approximate lethal dose (ALD) therefrom were explained in Table 30 below.

[3] = system: rhythmic bladder contractions; test: Rhythmic bladder contractions in rats (in vivo); design: species or system rat; details: 0.3 mpk, intravenous, female Sprague-Dawley rats; amplitude reduction of bladder contractions
Source text: [Experimental Example 3] Experiment on Rhythmic Bladder Contractions in Rats (In Vivo)
Female Sprague-Dawley rat was halothane-anesthetized, and a polyethylene catheter was inserted through urethra lay down straight and fixed. Urine in bladder was excreted through the catheter by gently massaging abdomen of the rat, and then removed. A three-way stopcock was connected to the catheter and a pressure transducer was connected to one side of the three-way stopcock to measure pressure, and a syringe was installed at the other side to inject 37° C. of saline solution. The saline solution was slowly injected until regular bladder contractions occurred repeatedly. When regular bladder contractions occurred stably, test compounds were administered intravenously through the tail vein. Inhibitory effect of the test compounds was evaluated by measuring degree of amplitude reduction of bladder contractions.

T1 sequence (P20309 whole entry): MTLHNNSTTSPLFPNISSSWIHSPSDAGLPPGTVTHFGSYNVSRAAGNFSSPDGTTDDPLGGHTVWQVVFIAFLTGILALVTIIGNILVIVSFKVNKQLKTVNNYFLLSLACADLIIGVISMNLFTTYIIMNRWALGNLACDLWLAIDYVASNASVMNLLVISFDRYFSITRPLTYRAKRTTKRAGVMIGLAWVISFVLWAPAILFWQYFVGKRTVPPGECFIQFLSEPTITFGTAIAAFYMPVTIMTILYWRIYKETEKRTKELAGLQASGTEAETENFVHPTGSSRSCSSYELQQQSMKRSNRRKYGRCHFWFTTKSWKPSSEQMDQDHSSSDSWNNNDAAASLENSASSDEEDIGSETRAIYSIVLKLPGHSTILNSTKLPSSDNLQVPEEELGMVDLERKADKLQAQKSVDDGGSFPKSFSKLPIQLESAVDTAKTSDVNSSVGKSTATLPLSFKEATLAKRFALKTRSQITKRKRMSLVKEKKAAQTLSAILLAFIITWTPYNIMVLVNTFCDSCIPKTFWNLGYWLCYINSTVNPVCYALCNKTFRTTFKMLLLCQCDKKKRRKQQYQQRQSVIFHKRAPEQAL

Structure (SMILES)	pKi [1]	pKi [2]	Approximate Lethal Dose (ALD) (Sprague-Dawley (SD) rats) [mg/kg]	Inhibition of Rhythmic bladder contraction in rats [3] [%]
Cc1cccc(-c2ccccc2NC(=O)OCCC2CCCN2C)c1 (stereo not shown) [Example 15, 2-(1-methylpyrrolidin-2-yl)ethyl(3′-methyl-[1,1′-biphenyl]-2-yl)carbamate]	8.64	8.39	>1000	25.6 ± 2.2
CN1CC[C@H](COC(=O)Nc2ccccc2-c2ccccc2)C1 [Example 90, (S)-(1-methylpyrrolidin-3-yl)methyl [1,1′-biphenyl]-2-ylcarbamate]	8.71	9.77	>1000	27.4 ± 1.9
CN1CC[C@@H](COC(=O)Nc2ccccc2-c2cc(F)cc(F)c2)C1 [Example 91, (R)-(1-methylpyrrolidin-3-yl)methyl (3′,5′-difluoro-[1,1′-biphenyl]-2-yl)carbamate]	8.35	8.88	>1000	25.2 ± 2.5
Cc1cccc(-c2ccccc2NC(=O)OC[C@@H]2CCCN2C)c1 [Example 199, (S)-(1-methylpyrrolidin-2-yl)methyl(3′-methyl-[1,1′-biphenyl]-2-yl)carbamate]	9.10	9.59	>1000	27.8 ± 4.5
Cc1cccc(-c2ccccc2NC(=O)OC[C@@H]2CCN(C)C2)c1 [Example 100, (R)-(1-methylpyrrolidin-3-yl)methyl(3′-methyl-[1,1′-biphenyl]-2-yl)carbamate]	8.61	9.19	>1000	26.0 ± 6.0
CN1CC[C@@H](COC(=O)Nc2ccccc2-c2cccc(Cl)c2)C1 [Example 117, (R)-(1-methylpyrrolidin-3-yl)methyl(3′-chloro-[1,1′-biphenyl]-2-yl)carbamate]	8.80	9.47		15.4 ± 0.1
CN1CCCC1CCOC(=O)Nc1ccc(F)cc1-c1ccc(F)cc1 (stereo not shown) [Example 19, 2-(1-methylpyrrolidin-2-yl)ethyl(4′,5-difluoro-[1,1′-biphenyl]-2-yl)carbamate]	8.38	8.72		12.8 ± 3.0
CN1CC[C@@H](COC(=O)Nc2ccc(F)cc2-c2ccc(F)c(Cl)c2)C1 [Example 143, (R)-(1-methylpyrrolidin-3-yl)methyl(3′-chloro-4′,5-difluoro-[1,1′-biphenyl]-2-yl)carbamate]	8.95	9.17	>1000	24.3 ± 5.5
CCN1CC[C@@H](COC(=O)Nc2ccccc2-c2ccc(F)c(Cl)c2)C1 [Example 150, (R)-(1-ethylpyrrolidin-3-yl)methyl (3′-chloro-4′-fluoro-[1,1′-biphenyl]-2-yl)carbamate]	8.25	8.87	>1000	25.1 ± 2.5
CN1CCCC1CCOC(=O)Nc1ccccc1-c1ccccc1F (stereo not shown) [Example 34, 2-(1-methylpyrrolidin-2-yl)ethyl(2′-fluoro-[1,1′-biphenyl]-2-yl)carbamate]	7.71	8.58		20.1 ± 1.8
CN1CC[C@@H](COC(=O)Nc2ccccc2-c2ccc(F)c(Cl)c2)C1 [Example 136, (R)-(1-methylpyrrolidin-3-yl)-methyl (3′-chloro-4′-fluoro-[1,1′-biphenyl]-2-yl)carbamate]	8.80	9.60	>1000	33.2 ± 4.0
CN1CCCC1CCOC(=O)Nc1ccc(F)cc1-c1ccc(F)c(Cl)c1 (stereo not shown) [Example 53, 2-(1-methylpyrrolidin-2-yl)ethyl(3′-chloro-4′,5-difluoro-[1,1′-biphenyl]-2-yl)carbamate]	8.87	9.24	>1000	28.0 ± 5.0
Cc1ccc(-c2cc(F)ccc2NC(=O)OCCC2CCCN2C)cc1C (stereo not shown) [Example 59, 2-(1-methylpyrrolidin-2-yl)ethyl(5-fluoro-3′,4′-dimethyl-[1,1′-biphenyl]-2-yl)carbamate]	8.19	8.62		11.6 ± 1.9
CN1CC[C@H](COC(=O)Nc2ccc(F)cc2-c2cc(F)cc(Cl)c2)C1 [Example 129, (S)-(1-methylpyrrolidin-3-yl)methyl(3′-chloro-5,5′-difluoro-[1,1′-biphenyl]-2-yl)carbamate]	7.90	8.20		15.7 ± 1.4
CN1CC[C@@H](COC(=O)Nc2ccc(Cl)cc2-c2cccc(Cl)c2)C1 [Example 145, (R)-(1-methylpyrrolidin-3-yl)methyl(3′,5-dichloro-[1,1′-biphenyl]-2-yl)carbamate]	7.85	8.53		13.1 ± 3.0
Cc1ccc(NC(=O)OC[C@@H]2CCCN2C)c(-c2cccc(F)c2)c1 [Example 207, (S)-(1-methylpyrrolidin-2-yl)methyl(3′-fluoro-5-methyl-[1,1′-biphenyl]-2-yl)carbamate]	7.87	8.45		18.2 ± 3.7
CN1CCCC1CCOC(=O)Nc1ccccc1-c1cccc(Cl)c1 (stereo not shown) [Example 8, 2-(1-methylpyrrolidin-2-yl)ethyl(3′-chloro-[1,1′-biphenyl]-2-yl)carbamate]	8.88	8.52		23.2 ± 2.3
CN1CC[C@@H](COC(=O)Nc2ccccc2-c2ccccc2)C1 [Example 89, (R)-(1-methylpyrrolidin-3-yl)methyl [1,1′-biphenyl]-2-ylcarbamate]	8.61	9.80	>1000	33.9 ± 3.5
CN1CCCC1CCOC(=O)Nc1ccccc1-c1cc(F)cc(F)c1 (stereo not shown) [Example 2, 2-(1-methylpyrrolidin-2-yl)ethyl(3′,5′-difluoro-[1,1′-biphenyl]-2-yl)carbamate]	8.06	8.22		20.1 ± 3.1
